Data from US10533000B2, “Metabotrophic glutamate receptor 5 modulators and methods of use thereof” (Sunovion Pharmaceuticals, Inc., priority 2011, dated 2020).

Target: mGluR5 (Homo sapiens, UniProt P41594)
Assay: mGluR5 positive allosteric modulator (PAM) functional assay
Assay type: cell-based

Chain of mGluR5 (P41594 21-1212): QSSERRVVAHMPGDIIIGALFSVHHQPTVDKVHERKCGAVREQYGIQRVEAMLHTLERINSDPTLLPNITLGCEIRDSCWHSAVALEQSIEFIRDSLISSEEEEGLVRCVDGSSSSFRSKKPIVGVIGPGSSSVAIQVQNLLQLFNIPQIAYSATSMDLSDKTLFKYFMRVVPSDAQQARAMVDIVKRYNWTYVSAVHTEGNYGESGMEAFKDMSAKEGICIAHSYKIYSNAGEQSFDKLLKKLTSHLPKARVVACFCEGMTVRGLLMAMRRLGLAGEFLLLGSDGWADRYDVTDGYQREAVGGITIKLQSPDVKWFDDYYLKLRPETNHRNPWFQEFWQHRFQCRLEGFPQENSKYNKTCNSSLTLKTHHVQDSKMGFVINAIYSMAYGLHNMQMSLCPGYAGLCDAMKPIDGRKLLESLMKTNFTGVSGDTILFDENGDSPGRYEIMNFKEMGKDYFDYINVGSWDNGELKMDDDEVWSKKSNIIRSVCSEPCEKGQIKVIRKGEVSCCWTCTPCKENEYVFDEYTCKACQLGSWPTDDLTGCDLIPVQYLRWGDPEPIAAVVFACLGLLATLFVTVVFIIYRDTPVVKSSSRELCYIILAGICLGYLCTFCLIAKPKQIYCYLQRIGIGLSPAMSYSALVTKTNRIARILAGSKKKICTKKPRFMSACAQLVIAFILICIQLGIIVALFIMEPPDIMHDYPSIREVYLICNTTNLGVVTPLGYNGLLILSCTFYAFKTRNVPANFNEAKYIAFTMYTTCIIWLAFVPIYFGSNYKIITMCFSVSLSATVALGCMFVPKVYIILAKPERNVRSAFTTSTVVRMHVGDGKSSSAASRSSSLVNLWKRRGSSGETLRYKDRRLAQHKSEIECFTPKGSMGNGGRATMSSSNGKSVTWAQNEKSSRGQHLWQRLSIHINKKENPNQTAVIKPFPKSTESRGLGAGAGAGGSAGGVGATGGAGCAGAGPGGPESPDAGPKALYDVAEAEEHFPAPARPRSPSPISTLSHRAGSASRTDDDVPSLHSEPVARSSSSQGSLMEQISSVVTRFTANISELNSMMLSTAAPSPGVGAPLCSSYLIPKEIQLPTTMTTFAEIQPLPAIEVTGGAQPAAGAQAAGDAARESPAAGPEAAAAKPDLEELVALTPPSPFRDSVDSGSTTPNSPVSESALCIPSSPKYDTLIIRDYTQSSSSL

| Compound | EC50 |
| --- | --- |
| CCC(C)c1nc(-c2ccc(C#Cc3ccccn3)cn2)no1 (centres unmarked) [Compound 134, 5-(sec-butyl)-3-(5-(pyridin-2-ylethynyl)pyridin-2-yl)-1,2,4-oxadiazole] | 30 to 100 nM |
| CCC(CC)c1nc(-c2ccc(C#Cc3ccccn3)cn2)no1 [Compound 136, 5-(pentan-3-yl)-3-(5-(pyridin-2-ylethynyl)pyridin-2-yl)-1,2,4-oxadiazole] | ≤ 30 nM |
| C(#Cc1ccccn1)c1ccc(-c2noc(C3CCCC3)n2)nc1 [Compound 137, 5-cyclopentyl-3-(5-(pyridin-2-ylethynyl)pyridin-2-yl)-1,2,4-oxadiazole] | 30 to 100 nM |
| CCC(OC)c1nc(-c2ccc(C#Cc3ccccn3)cn2)no1 (centres unmarked) [Compound 138, 5-(1-methoxypropyl)-3-(5-(pyridin-2-ylethynyl)pyridin-2-yl)-1,2,4-oxadiazole] | 100 to 300 nM |
| CC(c1nc(-c2ccc(C#Cc3ccccn3)cn2)no1)N1CCCC1(C)C (centres unmarked) [Compound 139, 5-(1-(2,2-dimethylpyrrolidin-1-yl)ethyl)-3-(5-(pyridin-2-ylethynyl)pyridin-2-yl)-1,2,4-oxadiazole] | 30 to 100 nM |
| CC(C)NC(C)c1nc(-c2ccc(C#Cc3ccccn3)cn2)no1 (centres unmarked) [Compound 140, N-(1-(3-(5-(pyridin-2-ylethynyl)pyridin-2-yl)-1,2,4-oxadiazol-5-yl)ethyl)propan-2-amine] | 100 to 300 nM |
| CC(c1nc(-c2ccc(C#Cc3ccccn3)cn2)no1)N1CCCC1 (centres unmarked) [Compound 142, 3-(5-(pyridin-2-ylethynyl)pyridin-2-yl)-5-(1-(pyrrolidin-1-yl)ethyl)-1,2,4-oxadiazole] | 30 to 100 nM |
| CC(c1nc(-c2ccc(C#Cc3ccccn3)cn2)no1)N(C)C (centres unmarked) [Compound 143, N,N-dimethyl-1-(3-(5-(pyridin-2-ylethynyl)pyridin-2-yl)-1,2,4-oxadiazol-5-yl)ethanamine] | 100 to 300 nM |
| CNC(C)(C)c1nc(-c2ccc(C#Cc3ccccn3)cn2)no1 [Compound 144, N-methyl-2-(3-(5-(pyridin-2-ylethynyl)pyridin-2-yl)-1,2,4-oxadiazol-5-yl)propan-2-amine] | 300 to 1000 nM |
| CN(C)C(C)(C)c1nc(-c2ccc(C#Cc3ccccn3)cn2)no1 [Compound 145, N,N-dimethyl-2-(3-(5-(pyridin-2-ylethynyl)pyridin-2-yl)-1,2,4-oxadiazol-5-yl)propan-2-amine] | 30 to 100 nM |
| CCOC(=O)NC(CC)c1nc(-c2ccc(C#Cc3ccccn3)cn2)no1 (centres unmarked) [Compound 146, ethyl (1-(3-(5-(pyridin-2-ylethynyl)pyridin-2-yl)-1,2,4-oxadiazol-5-yl)propyl)carbamate] | 100 to 300 nM |
| CCC(c1nc(-c2ccc(C#Cc3ccccn3)cn2)no1)N(C)C (centres unmarked) [Compound 148, N,N-dimethyl-1-(3-(5-(pyridin-2-ylethynyl)pyridin-2-yl)-1,2,4-oxadiazol-5-yl)propan-1-amine] | 30 to 100 nM |
| CCC(NC1CC1)c1nc(-c2ccc(C#Cc3ccccn3)cn2)no1 (centres unmarked) [Compound 149, N-(1-(3-(5-(pyridin-2-ylethynyl)pyridin-2-yl)-1,2,4-oxadiazol-5-yl)propyl)cyclopropanamine] | 300 to 1000 nM |
| CN1CCC1c1nc(-c2ccc(C#Cc3ccccn3)cn2)no1 (centres unmarked) [Compound 150, 5-(1-methylazetidin-2-yl)-3-(5-(pyridin-2-ylethynyl)pyridin-2-yl)-1,2,4-oxadiazole] | 300 to 1000 nM |

More lines, now with the values ahead:

| EC50 | Compound |
| --- | --- |
| 300 to 1000 nM | C(#Cc1ccccn1)c1ccc(-c2noc(C3CCCN3)n2)nc1 (centres unmarked) [Compound 151, 3-(5-(pyridin-2-ylethynyl)pyridin-2-yl)-5-(pyrrolidin-2-yl)-1,2,4-oxadiazole] |
| 30 to 100 nM | CN1C(c2nc(-c3ccc(C#Cc4ccccn4)cn3)no2)CCC1(C)C (centres unmarked) [Compound 153, 3-(5-(pyridin-2-ylethynyl)pyridin-2-yl)-5-(1,5,5-trimethylpyrrolidin-2-yl)-1,2,4-oxadiazole] |
| 300 to 1000 nM | CN1CC(F)(F)C[C@@H]1c1nc(-c2ccc(C#Cc3ccccn3)cn2)no1 [Compound 154, (R)-5-(4,4-difluoro-1-methylpyrrolidin-2-yl)-3-(5-(pyridin-2-ylethynyl)pyridin-2-yl)-1,2,4-oxadiazole] |
| 100 to 300 nM | CN1CC(F)(F)C[C@H]1c1nc(-c2ccc(C#Cc3ccccn3)cn2)no1 [Compound 155, (S)-5-(4,4-difluoro-1-methylpyrrolidin-2-yl)-3-(5-(pyridin-2-ylethynyl)pyridin-2-yl)-1,2,4-oxadiazole] |
| 300 to 1000 nM | CN1C[C@@H](F)C[C@@H]1c1nc(-c2ccc(C#Cc3ccccn3)cn2)no1 [Compound 156, 5-((2R,4S)-4-fluoro-1-methylpyrrolidin-2-yl)-3-(5-(pyridin-2-ylethynyl)pyridin-2-yl)-1,2,4-oxadiazole] |
| ≤ 30 nM | CCC(C)c1nc(-c2ccc(C#Cc3ccncc3)cn2)no1 (centres unmarked) [Compound 158, 5-(sec-butyl)-3-(5-(pyridin-4-ylethynyl)pyridin-2-yl)-1,2,4-oxadiazole] |
| 100 to 300 nM | COC(C)c1nc(-c2ccc(C#Cc3ccncc3)cn2)no1 (centres unmarked) [Compound 159, 5-(1-methoxyethyl)-3-(5-(pyridin-4-ylethynyl)pyridin-2-yl)-1.2.4-oxadiazole] |
| 30 to 100 nM | CCC(CC)c1nc(-c2ccc(C#Cc3ccncc3)cn2)no1 [Compound 160, 5-(pentan-3-yl)-3-(5-(pyridin-4-ylethynyl)pyridin-2-yl)-1,2,4-oxadiazole] |
| 30 to 100 nM | CCC(OC)c1nc(-c2ccc(C#Cc3ccncc3)cn2)no1 (centres unmarked) [Compound 161, 5-(1-methoxypropyl)-3-(5-(pyridin-4-ylethynyl)pyridin-2-yl)-1,2,4-oxadiazole] |
| 300 to 1000 nM | C(#Cc1ccc(-c2noc(C3CCCN3)n2)nc1)c1ccccc1 (centres unmarked) [Compound 165, 3-(5-(phenylethynyl)pyridin-2-yl)-5-(pyrrolidin-2-yl)-1,2,4-oxadiazole] |
| 300 to 1000 nM | Clc1cccc(C#Cc2ccc(-c3noc(C4CCCN4)n3)nc2)c1 (centres unmarked) [Compound 166, 3-(5-((3-chlorophenyl)ethynyl)pyridin-2-yl)-5-(pyrrolidin-2-yl)-1,2,4-oxadiazole] |
| 300 to 1000 nM | CN1C[C@H](F)C[C@@H]1c1nc(-c2ccc(C#Cc3ccccn3)cn2)no1 [Compound 169, 5-((2R,4R)-4-fluoro-1-methylpyrrolidin-2-yl)-3-(5-(pyridin-2-ylethynyl)pyridin-2-yl)-1,2,4-oxadiazole] |
| 30 to 100 nM | C(#Cc1ccccn1)c1ccc(-c2noc(C34CCCN3CCC4)n2)nc1 [Compound 170, 5-(hexahydro-1H-pyrrolizin-7a-yl)-3-(5-(pyridin-2-ylethynyl)pyridin-2-yl)-1,2,4oxadiazole] |
| 300 to 1000 nM | CN1CC[C@@H]2C[C@@]21c1nc(-c2ccc(C#Cc3ccccn3)cn2)no1 [Compound 172, 5-((1S,5R)-2-methyl-2-azabicyclo[3.1.0]hexan-1-yl)-3-(5-(pyridin-2-ylethynyl)pyridin-2-yl)-1,2,4-oxadiazole] |
| 100 to 300 nM | C(#Cc1ccccn1)c1ccc(-c2noc(C3CC4CCN3C4)n2)nc1 (centres unmarked) [Compound 174, 5-(1-azabicyclo[2.2.1]heptan-2-yl)-3-(5-(pyridin-2-ylethynyl)pyridin-2-yl)-1,2,4-oxadiazole] |
